Measured values from patent US11779661B2, “Theranostic nucleic acid binding fluorescent nanoprobes and uses thereof” (The General Hospital Corporation, priority 2016, dated 2023).

Test system: Bacterial Phage Lambda DNA
Assay: In vitro nucleic acid binding fluorescence assay, Lambda DNA
Conditions: equivalent fluorochrome concentrations, FIG. 1F
Experimental: Bacterial Phage Lambda DNA (Sigma-Aldrich), CpG DNA (Enzo Life, Plymouth Meeting, Pa.), Torula yeast RNA (Sigma-Aldrich) were completely dissolved in Tris-acetate-EDTA (TAE) buffer (pH=8) by gentle inversion overnight at 4° C. Lambda DNA, CpG DNA, yeast RNA stock solutions were characterized by spectrophotometry to determine the concentration and purity. Total mouse heart RNA was extracted from C57Bl6 mouse hearts using TRI Reagent (Sigma-Aldrich) and characterized with a NanoDrop spectrophotometer (Thermo Fisher) as described in Feng Y, Chen H, et al., J Biol Chem. 2015; 290: 26688-98. […] Fluorescence was measured with the GloMax-Multi Detection System and snap-in fluorescent optical kits (Promega, Madison, Wis.). EC50 was determined using the dose-response curve fitting function implemented in Prism (GraphPad, La Jolla, Calif.).

Compound: Cy5.5
- Fluorescence increase with DNA concentration: No fluorescence increase and none

Compound: CN1/C(=C/c2cc[n+](CCC[N+](C)(C)C)c3ccccc23)Sc2ccccc21 [TO-PRO 1]
- Fluorescence increase with DNA concentration: substantially less increase
